Biological target: T1, Human recombinant SIRT6 (Homo sapiens, UniProt Q8N6T7)
T1 construct: six-histidine (His6); made in house; host or cells: Escherichia coli BL21
Test: SIRT6 enzymatic activity assay (fluorogenic de-myristoylation of histone H3 peptide-AMC, trypsin-coupled)
Format: biochemical
Conditions: percentage of signal increase relative to control wells; for % activity 20 uM: compound 20 uM; for % activity Max. conc. 100 uM / % activity 100 uM: compound 100 uM
Method: Human recombinant SIRT6 (sequence identifier: CAG33481.1; GI:4814651) was expressed in large scale in Escherichia coli strain BL21 as a six-histidine-tagged protein, after transformation of the expression plasmid pET28-SIRT6. The SIRT6 enzyme was purified from the bacteria culture broth in a two-step strategy. The first purification step was carried out by cation exchange chromatography on a HiTrap CM-Sepharose column (GE Healthcare) using an FPLC system. The second purification step was performed by immobilized metal ion affinity chromatography (IMAC) using a cobalt affinity column (Clontech).
The enzymatic activity assay is carried out in 96 or 384-well microplates using the purified recombinant SIRT6 and a fluorophore-labeled peptide substrate: 7-amino-4-methylcoumarin (AMC) that is quenched through conjugation to the C-terminal end of a Lysin-myristoylated histone H3 peptide. The activity assay procedure requires two steps, both performed in the same microplate. In the first step, the substrate is incubated with the purified SIRT6 protein along with the co-substrate nicotinamide adenine dinucleotide (NAD+). Upon de-myristoylation, the liberated ε-amino group of the lysine becomes a trypsin substrate. Treatment with trypsin in the second step releases the fluorophore resulting in an increase in fluorescence. Fluorescence intensity is measured using a fluorescent plate reader (excitation and emission at 370 nm and 450 nm, respectively). The fluorescence signal is directly proportional to SIRT6 enzymatic activity.
In the primary screening, compounds from a library (ChemDiv Inc.) were tested at a single concentration of 20 micromolar for their potential to modulate SIRT6 enzymatic activity. The assay was carried out in 384-well black well plates and all liquid handling was done using a robotic liquid handler. Purified recombinant SIRT6 (1 micromolar) was pre-incubated with each compound (or DMSO in control wells) for 15 minutes at room temperature. The first stage of the assay was initiated by adding a ‘substrate solution’ containing the myristoylated histone H3 peptide and NAD+(for final concentrations of 25 micromolar and 20 micromolar, respectively). After one hour incubation at 37° C., a Trypsin solution (6 mg/mL) was added for 30 minutes at room temperature. Fluorescence intensity was measured using a fluorescent plate reader (Tecan) with excitation at 370 nm and emission at 450 nm. The effect of each tested compound was evaluated by the change in the fluorescence intensity compared to control wells. […] To validate the primary screening results, each of the primary “hits” was re-tested, first at concentration of 20 micromolar in duplicates and later at a serial dilution ranging from 100 to 0.2 micromolar in triplicates.

T1 sequence (Q8N6T7 whole entry): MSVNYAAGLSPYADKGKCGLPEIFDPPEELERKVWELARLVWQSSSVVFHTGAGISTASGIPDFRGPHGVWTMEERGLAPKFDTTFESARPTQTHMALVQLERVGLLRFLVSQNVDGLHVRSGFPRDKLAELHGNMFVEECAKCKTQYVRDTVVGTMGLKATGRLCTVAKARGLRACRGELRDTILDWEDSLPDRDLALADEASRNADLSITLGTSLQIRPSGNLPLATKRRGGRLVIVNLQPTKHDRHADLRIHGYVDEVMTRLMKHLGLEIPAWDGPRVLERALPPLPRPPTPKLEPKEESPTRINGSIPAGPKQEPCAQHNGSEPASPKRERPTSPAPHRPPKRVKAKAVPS

SMILES | % activity 20 uM (Table 1) [%] | % activity Max. conc. 100 uM (Table 1) [%] | % activity 20 uM (Table 2) [%] | % activity 100 uM (Table 2) [%]
C=C(CCOc1ccccc1)N(CCCN(C)C)C1=Nc2c(C)cccc2C1 [A] | 263 | 255 | – | –
Cc1cccc2c1N=C(N(CCCN(C)C)C(=O)CCOc1ccccc1)C2 [B] | 287 | 252 | – | –
C=C1Oc2cc(C[C@@H]3C[C@H](CO)[C@H](O)[C@H](C)[C@H]3O)ccc2C2=C1CCCC2 [C] | 70 | 195 | – | –
CCc1nc(-c2ccccc2)c2cc(Cl)ccc2n1 [compound 1] | – | – | 88 | 428
C=C(Nc1ccc(Cl)cc1)N1c2ccc(OCC)cc2C(C)=CC1(C)C [compound 2] | – | – | 29 | 46
C=C(Cc1ccc2c(c1)C(C)=CC(C)(C)N2)Cc1cccc2ccccc12 [compound 4] | – | – | 29 | 56
CC1=CC(C)(C)Nc2ccc(OC(=O)c3cccs3)cc21 [compound 5] | – | – | 39 | 54
Cc1ccnc(NC(c2ccc(C)cc2C)c2ccc3cccnc3c2O)c1 (centres unmarked) [compound 6] | – | – | 30 | 28
Cn1c(-c2ccc3[nH]c(-c4ccc(N)cc4)nc3c2)nc2cc(N)ccc21 [compound 7] | – | – | 118 | 162
CCc1nnc(NC(=O)CSc2nc(N)nc(SC)c2C#N)s1 [compound 8] | – | – | 25 | 25
C=C(CS)Nc1ccc(CCCCC)cc1 [compound 9] | – | – | 22 | 48
C=C(CN1c2ccccc2C(C)(C)C12C=Cc1c(ccc3ccccc13)C2)NC (centres unmarked) [compound 10] | – | – | 25 | 27
C=C1N(C)C(=O)c2c(nc3n2CC(c2ccc(Br)cc2)=NN3)N1C [compound 11] | – | – | 41 | 99
Cc1nc2sc(-c3nc4ccccc4[nH]3)c(N)c2c(C)c1Cl [compound 12] | – | – | 36 | 59
O=C1Nc2ccc(Cl)cc2C(c2ccccc2)C1Nc1ccc(Oc2ccccc2)cc1 (centres unmarked) [compound 13] | – | – | 24 | 86
N#Cc1c(N)oc(C2=CC=CC2)c1-c1ccco1 [compound 14] | – | – | 28 | 48
O=c1cc(O)c2sc3nc4c(cc3c2[nH]1)CCCCC4 [compound 15] | – | – | 37 | 75
C=C1Nc2nc(OC(C)=O)c(C)c(C)c2S1 [compound 16] | – | – | 40 | 197
COc1ccc(-c2nn3c(C)nnc3s2)cc1N [compound 17] | – | – | 21 | 18
CC1=NCC(c2ccc(O)cc2O)=C1c1ccc(Cl)cc1 [compound 18] | – | – | 53 | 94
C=C(OC(C)CC)C1=C(C)NC2=C(C(=C)C(C(=C)OC)C(C)C2)C1c1ccc(N(CC)CC)cc1 (centres unmarked) [compound 19] | – | – | 37 | 61
COc1ccc(-c2csc3c(NN)ncnc23)cc1 [compound 20] | – | – | 78 | 22
C=S(=C)(c1cc(Cl)ccc1Cl)n1c(/C=C/c2ccc(SC)cc2)nc2ccccc21 [compound 21] | – | – | 38 | 36

SMILES | % activity 20 uM (Table 1) [%] | % activity Max. conc. 100 uM (Table 1) [%] | % activity 20 uM (Table 2) [%] | % activity 100 uM (Table 2) [%]
CCN1CCCC1CNC(=O)C1CCN(c2cc(C)nc3c(-c4ccc(Cl)cc4)c(C)nn23)CC1 (centres unmarked) [compound 22] | – | – | 32 | 29
Cc1ccccc1CSc1ncc(Sc2ccccc2)c(C(=O)NCc2ccccc2)n1 [compound 23] | – | – | 55 | 65
Cc1cc(NC(=O)CSc2nnc(-c3sc4ncccc4c3N)n2C)ccc1Cl [compound 24] | – | – | 77 | 47
Cc1cc(Nc2ccc(NC(=O)Nc3ccc4c(c3)CCCO4)cc2)nc(NC2CCCCC2)n1 [compound 25] | – | – | 26 | 22
CC[C@H]1O[C@@H](Cc2ccc3c(c2C)CC(=O)C(C)=C3C)[C@H](C)[C@@H](O)[C@H]1C [compound 26] | – | – | 21 | 56
O=C(NCc1cccc(Cl)c1)c1noc2c1CSc1ccccc1-2 [compound 27] | – | – | 59 | 137
C=C1Cc2ccc(C)cc2C2=C1C(c1ccc(F)cc1)=C(NCCOC)C2 [compound 28] | – | – | 134 | 246
C=C1Oc2ccc(C)cc2-c2oc(NCCOC)c(-c3ccc(OCC)cc3)c21 [compound 29] | – | – | 82 | 226
COCCNc1oc2c(c1-c1ccc(C)cc1)c(=O)oc1c(C)cccc12 [compound 30] | – | – | 149 | 111
Cc1ccc(NC(=O)c2nnc(-c3ccc(NC(=O)c4cccs4)cc3)s2)cc1 [compound 31] | – | – | 29 | 16
C=C(CN1C(=C)C(c2nc(-c3ccccc3)no2)=C(C)C=C1C)NCCc1ccc(CC)c(CC)c1 [compound 32] | – | – | 101 | 73
C=C(CN1C(=C)C(c2nc(-c3ccccc3)no2)=C(C)C=C1C)NC1CCCCC1 [compound 33] | – | – | 53 | 221
C=C(Oc1ccc2cnccc2c1)C1=C(N)c2ccccc2C1 [compound 35] | – | – | 154 | 324
C=C(Nc1ccc(CC)c(Cl)c1)c1cc(N)cc2cn[nH]c12 [compound 36] | – | – | 45 | 56
C=C1Cc2c(cccc2CC)C=C1C1=CCC(NC(=O)CCC(=O)NCCCN2CCC(C)CC2)=N1 [compound 37] | – | – | 42 | 35
C=S(=O)(C1=CC=C(c2ccc(N3CCCCC3)nn2)C1)N1CCCC(C(=O)OCC)C1 (centres unmarked) [compound 38] | – | – | 52 | 52
C=C(Nc1ccc(CCC)cc1)C1=C(C)c2c(nc(C)nc2N(C)c2ccc(C(C)C)cc2)C1 [compound 39] | – | – | 32 | 54
C=C(CC)Nc1ccc(-c2cc(C(=O)NCCCN3CCCCCC3)c3ccccc3n2)cc1 [compound 40] | – | – | 62 | 92
CCC(=O)Nc1ccc(-c2cc(C(=O)NCCCN3CCCCC3C)c3ccccc3n2)cc1 (centres unmarked) [compound 41] | – | – | 40 | 110
C=C(CC)Nc1ccc(-c2cc(C(=O)NCCCN3CCCC(C)C3)c3ccccc3n2)cc1 (centres unmarked) [compound 42] | – | – | 61 | 87
C=C(NCCN1CCN(C)CC1)c1cc(-c2ccc(NC(C)=O)cc2)nc2ccc(C)cc12 [compound 43] | – | – | 96 | 119
C=C(c1ccc(-c2nc3ccccc3n(CC(C)C)c2=O)cc1)N1CCN(c2ccccc2)CC1 [compound 46] | – | – | 51 | 56
C=C(NCCC)c1ccc(-c2ccc(N3CCCCC3)nc2)cc1 [compound 47] | – | – | 63 | 50

From patent US10857170B1, “Molecules, compositions and methods for modulation of SIRT6” (SirTLab Corporation, priority 2015, dated 2020)
